Key:
Details in all cases: Compound concentration 1.0 uM
[1] = biological target: Cyclin-dependent kinase-like 1 (Homo sapiens) (UniProt Q00532); assay: CDKL1(h) Eurofins kinase panel
[2] = biological target: Casein kinase I isoform gamma-1 (Homo sapiens) (UniProt Q9HCP0); assay: CK1gamma1(h) Eurofins kinase panel
[3] = biological target: MAP kinase-activated protein kinase 3 (Homo sapiens) (UniProt Q16644); assay: MAPKAP-K3(h) Eurofins kinase panel
[4] = biological target: T1, Serine/threonine-protein kinase Nek1 (Homo sapiens) (UniProt Q96PY6); assay: NEK1(h) Eurofins kinase panel
T1 sequence (whole entry): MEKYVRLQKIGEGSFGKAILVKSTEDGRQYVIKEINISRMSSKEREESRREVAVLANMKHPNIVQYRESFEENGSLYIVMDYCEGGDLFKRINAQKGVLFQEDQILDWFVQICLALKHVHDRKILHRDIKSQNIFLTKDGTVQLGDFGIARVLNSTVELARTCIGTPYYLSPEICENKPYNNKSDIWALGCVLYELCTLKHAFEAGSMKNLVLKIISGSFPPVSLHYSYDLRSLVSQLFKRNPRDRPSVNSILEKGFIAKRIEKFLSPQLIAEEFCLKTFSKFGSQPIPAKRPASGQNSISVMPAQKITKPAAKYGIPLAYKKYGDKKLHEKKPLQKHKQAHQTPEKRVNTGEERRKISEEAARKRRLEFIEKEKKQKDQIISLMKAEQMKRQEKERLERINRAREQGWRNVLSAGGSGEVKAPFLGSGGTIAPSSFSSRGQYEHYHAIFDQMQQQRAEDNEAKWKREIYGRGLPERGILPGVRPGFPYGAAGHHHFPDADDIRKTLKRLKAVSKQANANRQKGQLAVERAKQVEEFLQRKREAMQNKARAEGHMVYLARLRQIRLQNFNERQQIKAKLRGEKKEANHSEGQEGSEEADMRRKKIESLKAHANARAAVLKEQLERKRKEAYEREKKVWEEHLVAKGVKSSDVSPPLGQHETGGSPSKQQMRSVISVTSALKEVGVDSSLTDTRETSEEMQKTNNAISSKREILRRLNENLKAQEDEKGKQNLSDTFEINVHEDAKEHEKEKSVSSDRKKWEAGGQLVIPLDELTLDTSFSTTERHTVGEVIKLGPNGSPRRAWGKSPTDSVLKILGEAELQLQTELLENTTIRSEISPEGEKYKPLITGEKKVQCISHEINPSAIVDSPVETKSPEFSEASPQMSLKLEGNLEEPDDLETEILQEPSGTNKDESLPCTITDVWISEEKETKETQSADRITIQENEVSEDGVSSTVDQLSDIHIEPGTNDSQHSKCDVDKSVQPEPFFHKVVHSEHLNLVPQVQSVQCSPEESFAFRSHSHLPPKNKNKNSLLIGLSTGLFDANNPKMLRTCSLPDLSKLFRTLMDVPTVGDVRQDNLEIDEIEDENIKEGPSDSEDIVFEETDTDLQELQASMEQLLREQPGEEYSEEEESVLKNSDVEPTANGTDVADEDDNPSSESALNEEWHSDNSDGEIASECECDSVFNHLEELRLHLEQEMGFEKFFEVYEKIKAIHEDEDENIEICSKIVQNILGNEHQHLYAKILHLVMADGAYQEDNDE

[5] = biological target: T2, NUAK family SNF1-like kinase 2 (Homo sapiens) (UniProt Q9H093); assay: NUAK2(h) Eurofins kinase panel
T2 sequence (whole entry): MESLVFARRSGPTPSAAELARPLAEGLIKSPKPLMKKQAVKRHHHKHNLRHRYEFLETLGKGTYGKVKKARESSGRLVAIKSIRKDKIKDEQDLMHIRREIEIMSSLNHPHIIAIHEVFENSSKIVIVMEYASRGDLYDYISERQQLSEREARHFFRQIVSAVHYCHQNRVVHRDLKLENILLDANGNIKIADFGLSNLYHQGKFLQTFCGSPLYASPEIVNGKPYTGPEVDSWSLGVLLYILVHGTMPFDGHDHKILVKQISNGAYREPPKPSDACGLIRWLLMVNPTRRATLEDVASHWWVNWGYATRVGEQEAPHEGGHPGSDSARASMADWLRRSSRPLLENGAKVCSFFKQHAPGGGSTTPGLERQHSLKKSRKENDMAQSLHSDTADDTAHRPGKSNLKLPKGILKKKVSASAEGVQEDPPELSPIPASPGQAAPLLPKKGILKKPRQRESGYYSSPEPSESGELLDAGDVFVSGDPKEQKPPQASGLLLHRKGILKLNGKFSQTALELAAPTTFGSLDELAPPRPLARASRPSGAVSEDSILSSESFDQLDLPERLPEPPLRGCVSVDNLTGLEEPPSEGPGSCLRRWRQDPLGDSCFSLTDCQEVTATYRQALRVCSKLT

[6] = biological target: Serine/threonine-protein kinase MARK2 (Homo sapiens) (UniProt Q7KZI7); assay: PAR-1Balpha(h) Eurofins kinase panel
Sequence of Serine/threonine-protein kinase MARK2 (Homo sapiens) (Q7KZI7 whole entry): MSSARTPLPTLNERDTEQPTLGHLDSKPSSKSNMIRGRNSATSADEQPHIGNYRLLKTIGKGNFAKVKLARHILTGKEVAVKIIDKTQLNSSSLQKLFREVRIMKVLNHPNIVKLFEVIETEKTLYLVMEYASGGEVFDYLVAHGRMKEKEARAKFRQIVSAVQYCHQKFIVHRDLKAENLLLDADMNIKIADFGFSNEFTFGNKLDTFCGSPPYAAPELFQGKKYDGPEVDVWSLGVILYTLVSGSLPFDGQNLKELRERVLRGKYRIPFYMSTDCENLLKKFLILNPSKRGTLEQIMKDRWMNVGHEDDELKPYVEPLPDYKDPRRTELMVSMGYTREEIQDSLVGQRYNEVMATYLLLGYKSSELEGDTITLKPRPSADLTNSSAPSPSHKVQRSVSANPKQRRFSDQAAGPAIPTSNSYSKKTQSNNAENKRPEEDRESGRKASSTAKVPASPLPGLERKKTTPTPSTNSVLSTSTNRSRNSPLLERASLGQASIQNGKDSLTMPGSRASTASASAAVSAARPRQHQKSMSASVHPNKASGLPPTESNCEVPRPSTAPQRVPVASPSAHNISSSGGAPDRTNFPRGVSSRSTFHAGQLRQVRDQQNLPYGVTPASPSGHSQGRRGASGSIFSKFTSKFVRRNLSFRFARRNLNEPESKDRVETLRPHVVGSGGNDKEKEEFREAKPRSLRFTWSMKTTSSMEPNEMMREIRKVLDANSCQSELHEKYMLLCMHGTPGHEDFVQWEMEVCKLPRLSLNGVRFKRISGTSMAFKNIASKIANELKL

[7] = biological target: T3, Serine/threonine-protein kinase TBK1 (Homo sapiens) (UniProt Q9UHD2); assay: TBK1(h) Eurofins kinase panel
T3 sequence (whole entry): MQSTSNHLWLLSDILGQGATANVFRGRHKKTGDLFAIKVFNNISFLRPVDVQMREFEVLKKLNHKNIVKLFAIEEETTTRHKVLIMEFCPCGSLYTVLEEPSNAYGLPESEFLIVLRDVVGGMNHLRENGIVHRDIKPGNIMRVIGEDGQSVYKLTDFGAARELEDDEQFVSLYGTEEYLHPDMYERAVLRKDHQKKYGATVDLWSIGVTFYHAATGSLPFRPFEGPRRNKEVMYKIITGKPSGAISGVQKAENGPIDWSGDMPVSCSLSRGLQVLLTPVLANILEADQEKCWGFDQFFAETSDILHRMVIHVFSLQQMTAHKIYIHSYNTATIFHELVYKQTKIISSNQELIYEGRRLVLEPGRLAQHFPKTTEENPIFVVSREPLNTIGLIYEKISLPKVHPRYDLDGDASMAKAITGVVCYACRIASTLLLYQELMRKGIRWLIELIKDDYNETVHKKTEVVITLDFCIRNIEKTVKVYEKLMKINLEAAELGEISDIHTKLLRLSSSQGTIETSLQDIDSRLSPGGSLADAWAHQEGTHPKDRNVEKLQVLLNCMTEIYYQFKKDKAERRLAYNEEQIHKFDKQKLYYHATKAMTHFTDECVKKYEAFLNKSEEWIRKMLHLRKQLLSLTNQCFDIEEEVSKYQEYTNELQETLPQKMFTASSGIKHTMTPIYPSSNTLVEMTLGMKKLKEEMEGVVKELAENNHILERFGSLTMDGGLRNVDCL

[8] = biological target: 5'-AMP-activated protein kinase catalytic subunit alpha-2 (Homo sapiens, UniProt P54646)
Sequence of 5'-AMP-activated protein kinase catalytic subunit alpha-2 (P54646 whole entry, looked up): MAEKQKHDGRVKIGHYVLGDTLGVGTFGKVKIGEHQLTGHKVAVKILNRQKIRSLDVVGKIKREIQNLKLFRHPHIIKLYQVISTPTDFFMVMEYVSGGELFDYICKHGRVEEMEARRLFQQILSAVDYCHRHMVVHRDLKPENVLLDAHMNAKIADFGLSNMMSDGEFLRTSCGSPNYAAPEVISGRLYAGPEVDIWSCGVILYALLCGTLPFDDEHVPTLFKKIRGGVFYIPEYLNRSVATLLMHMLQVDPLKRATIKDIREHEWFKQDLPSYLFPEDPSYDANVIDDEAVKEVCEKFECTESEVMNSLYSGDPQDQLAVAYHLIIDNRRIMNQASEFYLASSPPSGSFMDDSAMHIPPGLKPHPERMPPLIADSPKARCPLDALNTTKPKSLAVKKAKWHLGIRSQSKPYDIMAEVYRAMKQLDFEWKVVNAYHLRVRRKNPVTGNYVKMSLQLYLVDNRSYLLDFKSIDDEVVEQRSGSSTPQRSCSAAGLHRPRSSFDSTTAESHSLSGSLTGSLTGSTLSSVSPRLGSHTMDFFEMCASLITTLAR

Measured: % residual kinase activity

Sequence of MAP kinase-activated protein kinase 3 (Homo sapiens) (Q16644 whole entry, looked up): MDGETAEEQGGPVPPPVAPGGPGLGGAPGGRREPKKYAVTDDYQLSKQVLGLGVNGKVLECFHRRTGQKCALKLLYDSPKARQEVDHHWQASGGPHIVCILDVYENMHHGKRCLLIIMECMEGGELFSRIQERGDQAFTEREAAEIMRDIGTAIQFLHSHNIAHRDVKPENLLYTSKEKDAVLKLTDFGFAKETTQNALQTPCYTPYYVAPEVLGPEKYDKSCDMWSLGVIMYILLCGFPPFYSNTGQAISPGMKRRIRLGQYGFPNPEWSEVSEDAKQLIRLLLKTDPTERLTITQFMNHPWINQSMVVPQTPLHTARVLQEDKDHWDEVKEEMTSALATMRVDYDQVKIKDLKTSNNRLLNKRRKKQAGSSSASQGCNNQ
Sequence of Casein kinase I isoform gamma-1 (Homo sapiens) (Q9HCP0 whole entry, looked up, canonical isoform): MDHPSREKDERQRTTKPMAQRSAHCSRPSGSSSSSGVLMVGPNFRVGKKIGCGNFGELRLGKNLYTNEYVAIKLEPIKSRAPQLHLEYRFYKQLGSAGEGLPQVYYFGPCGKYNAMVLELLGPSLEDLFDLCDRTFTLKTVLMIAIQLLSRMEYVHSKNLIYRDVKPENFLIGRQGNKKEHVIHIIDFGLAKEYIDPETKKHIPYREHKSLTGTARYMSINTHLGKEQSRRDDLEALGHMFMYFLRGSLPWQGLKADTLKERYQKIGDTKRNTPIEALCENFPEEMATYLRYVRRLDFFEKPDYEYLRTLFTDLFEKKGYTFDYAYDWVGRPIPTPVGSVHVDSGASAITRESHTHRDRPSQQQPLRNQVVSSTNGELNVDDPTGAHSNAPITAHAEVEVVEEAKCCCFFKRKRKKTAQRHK
Sequence of Cyclin-dependent kinase-like 1 (Homo sapiens) (Q00532 whole entry, canonical isoform): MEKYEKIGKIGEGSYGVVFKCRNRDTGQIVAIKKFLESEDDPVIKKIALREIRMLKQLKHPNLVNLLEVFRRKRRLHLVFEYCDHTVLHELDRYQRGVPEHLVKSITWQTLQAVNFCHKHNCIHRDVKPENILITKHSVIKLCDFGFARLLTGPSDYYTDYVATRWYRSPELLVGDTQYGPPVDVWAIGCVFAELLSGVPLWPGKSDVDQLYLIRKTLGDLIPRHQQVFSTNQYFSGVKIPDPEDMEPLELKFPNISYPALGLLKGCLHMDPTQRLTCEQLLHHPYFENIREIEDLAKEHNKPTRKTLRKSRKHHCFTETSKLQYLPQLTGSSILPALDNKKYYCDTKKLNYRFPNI

CCc1ccccc1C(=O)Nc1n[nH]c2c(C)c(F)c(C3C(C#N)=C(C)N(C)C(C)=C3C#N)cc12 [BAY-3827]
inactive: [1] 95% | [2] 101% | [3] 106% | [4] 102% | [5] 45% | [6] 32% | [7] 106% | [8] 0%

— ChEMBL document CHEMBL4507319 (2021)
